Patent US9526785B2, “Pharmaceuticals for oral delivery” (Enteris BioPharma, Inc., priority 2013, dated 2016)
Read-outs that look alike come from different tables or passages of the source.

Experiment: Tigecycline plasma PK and % F after PO enteric-coated capsule in dogs
Assay type: in vivo, Beagle dogs
Details: female, beagle, dog, plasma, po; for concentration at 60 min / concentration at 75 min / concentration at 90 min / concentration at 120 min / concentration at 150 min / concentration at 180 min / concentration at 210 min / concentration at 240 min / concentration at 0 hr / concentration at 0.3 hr / concentration at 0.7 hr / concentration at 1 hr: Tigecycline Plasma Concentration; for concentration at 60 min / concentration at 75 min / concentration at 90 min / concentration at 120 min / concentration at 150 min / concentration at 180 min / concentration at 210 min / concentration at 240 min: SC424; for bioavailability: read-out: % F; for Tmax: read-out: Tmax (converted); for concentration at 0 hr / concentration at 0.3 hr / concentration at 0.7 hr / concentration at 1 hr: PO 30 mg unformulated enteric-coated capsule
Description: Adult beagle dogs weighing approximately 9 to 15 kg were used in the study. […] Room temperature was set to be maintained between approximately 20±5° C. Relative humidity was monitored but not controlled.
TEKLAD™ Certified Canine Diet was provided once daily in amounts (˜400 grams) appropriate for the size and age of the animals. Tap water was available ad libitum via automatic watering device or water bowls.
Oral dosing of enteric-coated capsules was accomplished by administering them to the back of the dog's mouth, followed by a chase of 5 mL water to ensure swallowing.
Water was provided ad libitum. […] Subsequently, each group of animals was dosed based on the protocol, i.e. either IV, or PO by capsule.
Minocycline (VWR international) was used as an internal standard. Sample processing/clean-up of plasma samples was carried out offline by protein precipitation with acidified acetonitrile using 0.5% trifluoroacetic acid (TFA).
The HPLC system consisted of Shimadzu SIL-HTc HPLC system equipped with dual Shimadzu LC-10ADvp isopumps, a Shimadzu CTO-10ASvp column temperature controller and a Shimadzu SPD-10Avp variable wavelength detector. […] Mobile phase A consisted of 23 mM phosphate buffer pH 2.5 with 4 mM 1-octanesulfonic acid, while mobile phase B consisting of 90% acetonitrile, 10% water, with 2 mM 1-octanesulfonic acid. […] The total runtime was 18 minutes per sample. The mobile phase flow rate was 1.2 mL/min. Detection was performed using the SPD-10Avp variable wavelength detector set at 350 nm, with a sensitivity of 0.001 aufs.
The samples were then centrifuged under refrigeration at 13 k rpm for 5 minutes. The supernatant was taken and the liquid removed to dryness under nitrogen in a turbovap. The dried extract was reconstituted in 60 μL of mobile phase A and the suspension was further centrifuged at 5 k rpm for 5 minutes to pellet any insoluble matter. The resulting supernatant was then injected onto the LC.
The unknown concentration in dog plasma samples was determined by interpolation of the peak area ratios of analyte:internal standard versus the ratio of their nominal concentrations into the regression line obtained from calibration standards spiked in pooled dog plasma. No regression weighting was used for the calculations. […] The calibration curve covered the range of 0.05 μg/mL to 5 μg/mL. […]
The capsules were enterically coated using a standard preclinical protocol to 10% weight gain. Two studies were conducted.

[1] = 15 mg, PO 15 mg enteric-coated capsule with 500 mg CA and 100 mg LLC, mean
[2] = 15 mg, PO 15 mg unformulated enteric-coated capsule, individual dogs
[3] = 15 mg, PO 15 mg unformulated enteric-coated capsule, mean
[4] = 30 mg, 30 mg Formulated (500 mg CA, 100 mg LLC) enteric coated capsule, Study 2 (SC430), mean (% CV) excluding animal 5256

CN(C)c1cc(NC(=O)CNC(C)(C)C)c(O)c2c1C[C@H]1C[C@H]3[C@H](N(C)C)C(O)=C(C(N)=O)C(=O)[C@@]3(O)C(O)=C1C2=O [Tigecycline]
concentration at 60 min [1]: 18.7 ng/mL
concentration at 60 min [2]: 0 ng/mL
concentration at 60 min [3]: 0 ng/mL
concentration at 75 min [1]: 46.1 ng/mL
concentration at 75 min [2]: 0 ng/mL
concentration at 75 min [3]: 0 ng/mL
concentration at 90 min [1]: 53.8 ng/mL
concentration at 90 min [2]: 0 ng/mL
concentration at 90 min [3]: 0 ng/mL
concentration at 120 min [1]: 51.5 ng/mL
concentration at 120 min [2]: 0 ng/mL
concentration at 120 min [3]: 0 ng/mL
concentration at 150 min [1]: 41.7 ng/mL
concentration at 150 min [2]: 0 ng/mL
concentration at 150 min [3]: 0 ng/mL
concentration at 180 min [1]: 37.4 ng/mL
concentration at 180 min [2]: 0 ng/mL
concentration at 180 min [3]: 0 ng/mL
concentration at 210 min [1]: 36.3 ng/mL
concentration at 210 min [2]: 0 ng/mL
concentration at 210 min [3]: 0 ng/mL
concentration at 240 min [1]: 35.2 ng/mL
concentration at 240 min [2]: 0 ng/mL
concentration at 240 min [3]: 0 ng/mL
Cmax (15 mg, target dose 15 mg, enterically coated capsule, read-out: Observed Mean Cmax): 75.5 ng/mL
AUC(0-t) (15 mg, target dose 15 mg, enterically coated capsule, time scale adjusted to 4 hours, read-out: Observed AUC(0-t)): 133 ng·h/mL
bioavailability [4]: 14.9%
AUC(0-t) (30 mg, 30 mg Formulated (500 mg CA, 100 mg LLC) enteric coated capsule, Study 2 (SC430), mean (% CV) excluding animal 5256, read-out: AUC(0-t)): 367 ng·h/mL
Cmax (30 mg, 30 mg Formulated (500 mg CA, 100 mg LLC) enteric coated capsule, Study 2 (SC430), mean (% CV) excluding animal 5256, read-out: Cmax): 121 ng/mL
Tmax [4]: 1.58 h
bioavailability (30 mg, 30 mg Unformulated enteric coated capsule, Study 2 (SC430)): 0%
AUC(0-t) (30 mg, PO 30 mg enteric-coated capsule with 500 mg CA and 100 mg LLC ([…]), SC430, mean excluding animal 5256, read-out: AUC(0-t)): 367 ng·h/mL
Cmax (30 mg, PO 30 mg enteric-coated capsule with 500 mg CA and 100 mg LLC ([…]), SC430, mean excluding animal 5256, read-out: Cmax): 121 ng/mL
Tmax (30 mg, PO 30 mg enteric-coated capsule with 500 mg CA and 100 mg LLC ([…]), SC430, mean excluding animal 5256): 1.6 h
bioavailability (30 mg, PO 30 mg enteric-coated capsule with 500 mg CA and 100 mg LLC, SC430, calculated from IV PK data of SC431, mean excluding animal 5256): 14.9%
bioavailability (30 mg, PO 30 mg unformulated enteric-coated capsule ([…]), SC430, individual dogs): 0%
bioavailability (30 mg, PO 30 mg unformulated enteric-coated capsule ([…]), SC430, mean): 0%
Tmax (30 mg, Study 2 (SC430), 30 mg Formulated enteric coated capsule (500 mg citric acid, 100 mg LLC), oral, dogs, N=4 excluding animal 5256, mean (% CV)): 1.58 h
bioavailability (30 mg, Study 2 (SC430), 30 mg Unformulated enteric coated capsule (microcrystalline cellulose filler), oral, dogs, N=3, based on that study's IV arm): 0%
concentration at 0 hr (30 mg, SC430, individual dogs): 0 ng/mL
concentration at 0 hr (30 mg, SC430, mean): 0 ng/mL
concentration at 0.3 hr (30 mg, SC430, individual dogs): 0 ng/mL
concentration at 0.3 hr (30 mg, SC430, mean): 0 ng/mL
concentration at 0.7 hr (30 mg, SC430, individual dogs): 0 ng/mL
concentration at 0.7 hr (30 mg, SC430, mean): 0 ng/mL
concentration at 1 hr (30 mg, SC430, individual dogs): 0 ng/mL
concentration at 1 hr (30 mg, SC430, mean): 0 ng/mL
